According to patent US20090281126A1, “Organic Compounds” (Novartis AG, priority 2006, published 2009):

What was measured:
[1] = molecular target: T1, human A3 receptors (Homo sapiens, UniProt P0DMS8); experiment: A3 binding assay ([125I]-AB-MECA radioligand, CHO membranes); settings: [125I]-AB-MECA 0.25 nM
T1 construct: expressed in transfected cells; membranes prepared in house
T1 sequence (P0DMS8 1-318): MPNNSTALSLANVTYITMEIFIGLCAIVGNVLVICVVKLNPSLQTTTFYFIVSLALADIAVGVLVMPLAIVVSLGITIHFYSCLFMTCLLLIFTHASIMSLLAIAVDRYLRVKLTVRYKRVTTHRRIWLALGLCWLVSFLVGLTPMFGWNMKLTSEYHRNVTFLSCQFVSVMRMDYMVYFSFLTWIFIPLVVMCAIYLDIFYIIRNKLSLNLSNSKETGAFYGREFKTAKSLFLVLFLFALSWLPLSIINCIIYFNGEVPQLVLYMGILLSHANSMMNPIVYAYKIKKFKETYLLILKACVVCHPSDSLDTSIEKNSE
Procedure: Compounds in the present invention were tested in an A3 binding assay using the iodinated ligand [^125I]-AB-MECA with membranes prepared from CHO cells stably expressing human A3 receptors.
Radioligand binding to the CHO A3 membranes was performed using radio-labelled agonist [^125I]-AB-MECA at a concentration range of 0.002-5 nM to obtain saturation binding. Binding experiments were performed in duplicate using 2.5 μg membrane in a total volume of 200 μL of assay buffer. The non-specific binding was determined in the presence of 10 μM of the agonist I-AB-MECA.
The assay was performed in a final volume of 200 μL/well, in a U-bottomed polypropylene 96-well plate. […] Total binding was determined using 50 μL vehicle. Non-specific binding was determined using 50 μL of 40 μM I-AB-MECA, to give a final assay concentration of 10 μM. • 50 μL [^125I]-AB-MECA at a concentration of 1 nM (4×), to give a final assay concentration of 0.25 nM. • 100 μL CHO A3 membranes at a concentration of 25 μg/mL in assay buffer containing 4 U/mL adenosine deamin ase (ADA) (final assay concentration of 2 U/mL), to give a final assay concentration of 2.5 μg/well.
Compound dilution were prepared on a Biomek 2000 to give a series of 10 concentrations from 40-0.002 μM (4×). […] Total binding was determined in the absence of I-AB-MECA and non specific binding in the presence of 10 μM I-AB-MECA. […]

[2] = molecular target: T2, adenosine A3 receptors (Homo sapiens, UniProt P0DMS8); experiment: A3 [35S]-GTPGammaS binding functional assay (SPA, CHO membranes); assay type: biochemical; settings: agonist stimulation of [35S]-GTPγS binding
T2 construct: expressed in transfected cells; membranes prepared in house
T2 sequence (P0DMS8 1-318): T1 sequence (P0DMS8 1-318)
Procedure: To establish the functional response to compounds of this invention an assay was carried out measuring A3 agonist stimulation of [^35S]-GTPγS binding in membranes prepared from CHO cells stably expressing adenosine A3 receptors. The agonist-induced stimulation of binding of [^35S]-GTPγS to activated G proteins has been used as a functional assay for a variety of receptors, including adenosine receptors. See Lorenzen et al., Mol Pharmacol, Vol. 49, pp. 915-926 (1996); and Jacobson et al., Drug Dev Res Vol. 37, p. 131 (1996).
The conventional GTPγS binding assay described by Lorenzen et al (1996), supra, is a filtration based method and thus requires a separation step; we have modified this method to run as a SPA format so that it can be used in a semi-automated and homogenous formal. In the SPA assay membranes are captured by wheatgerm agglutinin (WGA) SPA beads, through a specific interaction between WGA and carbohydrate residues of glycoproteins on the surfaces for the membranes. Upon receptor stimulation, [^35S]-GTPγS binds specifically to the alpha subunit of the G-protein thus bringing the [^35S]-GTPγS into close proximity with the SPA beads. Emitted β particles from the [^35S]-GTPγS excite the scintillant in the beads and produce light.
The assay was performed in a final volume of 250 μL/well in a white non-binding surface 96-well Optiplate. […]

[3] = as described in WO 95/02604, cited from earlier work

`CC(=O)N[C@H]1C[C@@H](n2cnc3c(NCc4cccc(I)c4)nc(Cl)nc32)[C@H](O)[C@@H]1O` [Example 1, N-{(1S,2R,3S,4R)-4-[2-Chloro-6-(3-iodobenzylamino)-purin-9-yl]-2,3-dihydroxycyclopentyl}-acetamide] showed a Ki [1] of 0.91 nM and an EC50 [2] of 11 nM.
For `CNC(=O)[C@H]1O[C@@H](n2cnc3c(NCc4cccc(I)c4)ncnc32)[C@H](O)[C@@H]1O` [IB-MECA], the increase in basal or systemic blood pressure ([3]; administration of IB-MECA) is listed as 10 to 30% and the “basal or systemic blood pressure after administration” value ([3]; from about 70 mmHg) is listed as “about 90 mmHg”.
